Counter-ions that a name gives are not always drawn.
Tests used:
[1] = test system: ischemic brain; assay: Effect of protecting ischemic brain (survival time after ligation of both carotid arteries); type: in vivo, ICR mice; conditions: for Average survival time (min) (average ± S.E.): maximum 6 h, control group 149.9 ± 25.8; for %: survival time relative to control group (100)
Description: Carotid arteries of both sides of ICR mice (6 to 8 weeks old) were exposed under halothane anesthesia and ligated. The mice thus treated had stroke symptoms such as jumping, rolling and convulsion and almost all of them died within 24 h.
The compound of the present invention was administered orally to the mice one hour before the ligation and the survival time (maximum: 6 h) was examined as an index of the effect of protecting eschemic brain. In this experiment, the compound was used in the form of a 5% suspension in acacia and a 5% acacia solution was given to the control group.

[2] = test system: nerve cells in the CAI region of the hippocampus; assay: Effect of protecting cells from disorder after ischemia (nerve cell count in hippocampus); type: in vivo, Mongolian gerbils; conditions: counted after one week, normal group 287 ± 6, control group 21 ± 10
Description: Carotid arteries on both sides of Mongolian gerbils were blocked to realize cerebral ischemia for 5 min. As a result, the nerve cells in the CAI region of the hippocampus disappeared extensively [Karino, T.: Brain Res., 239, 57 to 69 (1982)].
The compound of the present invention was administered orally to them, while a 5% acacia suspension was administered to the control group. After one hour, the ischemia was realized for 5 min. After one week, the animal was perfused and fixed with 4% neutral formalin transcardially. The treated sample was embedded in paraffin and cut to obtain slices having a thickness of 3 µm. The slices were dyed with hematoxylin-eosin and the number of the nerve cells in the CAI region of the hippocampus of each slice was counted.
The nerve cell density in the CAI region of the hippocampus was 287/mm in the normal (pseudo-operation) group and that of the control group was as small as 21/mm. Namely, a serious disappearance of the cell was caused by the 5-min ischemia. […]

[3] = 10 mg/kg p.o. one hour before ligation
[4] = 30 mg/kg p.o. one hour before ligation
[5] = 10 mg/kg p.o. one hour before 5-min ischemia
[6] = 30 mg/kg p.o. one hour before 5-min ischemia
[7] = 3 mg/kg p.o. one hour before ligation

Row | Compound | Average survival time (min) (average ± S.E.) [1, 3] | Average survival time (min) (average ± S.E.) [1, 4] | % ([1]; 10 mg/kg p.o.) [%] | % ([1]; 30 mg/kg p.o.) [%] | Nerve cell density (number/mm) [2, 5] [number/mm] | Nerve cell density (number/mm) [2, 6] [number/mm] | Average survival time (min) (average ± S.E.) [1, 7] | % ([1]; 3 mg/kg p.o.) [%] | Nerve cell density (number/mm) ([2]; 3 mg/kg p.o. one hour before 5-min ischemia)
1 | c1ccc(CC2CCN(CCc3ccc4ccccc4c3)CC2)cc1 [Example 73] | 150.4 ± 57.6 | 275.2 ± 58.2 | 100 | 184 | 69 ± 21 | 49 ± 8 |  |  | 
2 | O=C(CN1CCC(=Cc2ccc(F)cc2)CC1)c1ccc2ccccc2c1 [Example 74] | 205.1 ± 43.6 | 194.2 ± 49.7 | 137 | 130 |  | 62 ± 5 | 143.3 ± 39.6 | 96 | 
3 | O=C(CN1CCC(C(=O)c2ccc(F)cc2)CC1)c1ccc2ccccc2c1 [Example 12, 2-[4-p-Fluorobenzoyl)piperidinyl]-2'-acetonaphthone hydrochloride] | 181.4 ± 43.6 | 191.1 ± 54.3 | 121 | 128 | 75 ± 32 | 83 ± 32 | 213.7 ± 52.3 | 143 | 62 ± 26

Source: patent EP0288563B1, “CYCLIC AMINE DERIVATIVES” (Eisai Co., Ltd., priority 1986, dated 1988)
